Test results published in US20070265278A1, “2-PHENYL-INDOLES AS PROSTAGLANDIN D2 RECEPTOR ANTAGONISTS” (Aventis Pharmaceuticals Inc., priority 2005, published 2007).

Each molecule was assayed against T1, DP receptor (Homo sapiens, UniProt Q13258) (assay: SPA cAMP assay in human LS174 T cells (human DP functional assay)). Conditions: inhibition of PGD2 (15 nM)-stimulated cAMP, LS174T cells expressing endogenous DP receptor.
T1 construct: using the human cell line LS174T, which expresses the endogenous DP receptor; endogenous in cells; host or cells: LS174T human cell line
T1 sequence (Q13258 1-359): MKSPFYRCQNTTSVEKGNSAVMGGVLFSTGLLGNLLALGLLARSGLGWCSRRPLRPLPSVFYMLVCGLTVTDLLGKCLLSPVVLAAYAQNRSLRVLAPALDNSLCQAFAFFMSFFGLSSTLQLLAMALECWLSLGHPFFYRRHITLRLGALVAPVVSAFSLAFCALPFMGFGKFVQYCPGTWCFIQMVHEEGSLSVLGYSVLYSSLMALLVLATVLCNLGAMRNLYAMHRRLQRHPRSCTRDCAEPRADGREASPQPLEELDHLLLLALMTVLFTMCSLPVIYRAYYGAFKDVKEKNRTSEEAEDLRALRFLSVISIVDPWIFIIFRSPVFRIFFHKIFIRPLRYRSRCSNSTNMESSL
Type: cell-based
Protocol: The inhibitory effects of the compounds according to the invention are assessed in a human DP functional assay. A cAMP assay is employed using the human cell line LS174T, which expresses the endogenous DP receptor. The protocol is similar to that described previously (Wright D H, Ford-Hutchinson A W, Chadee K, Metters K M, The human prostanoid DP receptor stimulates mucin secretion in LS174T cells, Br J Pharmacol. 131(8):1537-45 (2000)).
Protocol for SPA cAMP Assay in Human LS174 T Cells
• PGD2 (Cayman Chemical Cat#12010) • IBMX (Sigma Cat# 5879) • cAMP SPA direct screening assay system (Amersham code RPA 559) • 96-well cell plates (Wallac Cat# 1450-516) • Wallac 1450 Microplate Trilux scintillation counter (PerkinElmer) • Plate sealers • Eppendorf tubes • Dulbecco's Phosphate-Buffered Saline (PBS) (Invitrogen Cat#14040-133) • Distilled water • Vortex • Magnetic stirrer and stirrer bars Reagent Preparation:
All reagents should be allowed to equilibrate to room temperature before reconstitution.
Transfer the contents of the bottle to a 500 mL graduated cylinder by repeated washing with distilled water. Adjust the final volume to 500 mL with distilled water and mix thoroughly.
Dissolve each of the lysis reagents 1 and 2 in 200 mL assay buffer respectively. Leave at room temperature for 20 minutes to dissolve.
Add 30 mL of lysis buffer 2 to the bottle. Gently shake the bottle for 5 minutes.
Add 15 mL of lysis buffer 2 to each vial, and gently mix until the contents are completely dissolved.
Add 14 mL lysis buffer 2 to each vial and gently mix until the contents are completely dissolved.
Preparation of Immunoreagent
• 1) Add equal volumes of tracer, antiserum and SPA anti-rabbit reagent to a bottle, ensuring that a sufficient volume of this mixture is prepared for the desired number of wells (150 μL/well). • 2) Mix thoroughly. • 3) This immunoreagent solution should be freshly prepared before each assay and not re-used. Standard • 1) Add 1 mL lysis buffer 1 and gently mix until contents are completely dissolved. • 2) The final solution contains cAMP at a concentration of 512 pmol/mL. • 3) Label 7 polypropylene or polystyrene tubes, 0.2 pmol, 0.4 pmol, 0.8 pmol, 1.6 pmol, 3.2 pmol, 6.4 pmol and 12.8 pmol. • 4) Pipette 500 μL of lysis buffer 1 into all the tubes. • 5) Into the 12.8 pmol tube pipette 500 μL of stock standard (512 pmol/mL) and mix thoroughly. Transfer 500 μL from 12.8 pmol tube to the 6.4 pmol tube and mix thoroughly. Repeat this doubling dilution successively with the remaining tubes.
6) 50 μL aliquots in duplicate from each serial dilution and the stock standard will give rise to 8 standard levels of cAMP ranging from 0.2-25.6 pmol standard
Add 50 μL of […] IBMX into 100 mL PBS to make a final concentration of 100 μM and sonicate at 30° C. for 20 minutes.
Dissolve 1 mg PGD2 (FW, 352.5) in 284 μL DMSO to make 10 mM stock solution and store at […]. Before each assay, it is freshly prepared. Add 3 μL of 10 mM stock solution to 20 mL DMSO, mix it thoroughly, and transfer 10 mL to 40 mL PBS.
Compound dilution is carried out in Biomex 2000 (Beckman) using Method 1_cAMP DP 11 points.
5 μL of each compound from the 10 mM stock compound plates is transferred to the wells of a 96-well plate respectively as below.
Fill the plate with 45 μL of DMSO except column 7 is filled with 28 μL DMSO. Pipette column 1 thoroughly, and transfer 12 μL into column 7 parallel. Perform 1:10 serial dilution from column 1 to column 6 and from column 7 to column 11 by transfer 5 μL to 45 μL DMSO to make following concentrations:
Fill a new 96-well plate with 247.5 μL of compound dilution buffer. Transfer 2.5 μL of serially diluted compounds from above plate to the new plate (1:100 dilution) as following:
Cell Growth • 1. LS174 T are always grown in MEM (ATCC Cat# 30-2003), 10% FBS (ATCC Cat# 30-2020) and additional 2 mM L-glutamine, at 37° C. and 5% CO2. • 2. Warm 0.05% Trypsin and Versine (Invitrogen Cat# 25300-054) at 37° C. water bath. • 3. […]

Compared with `CC(C)NS(=O)(=O)c1cc(-c2[nH]c3ccccc3c2CC(=O)O)ccc1Cl` [Example 1(g), [2-(4-Chloro-3-isopropylsulfamoyl-phenyl)-1H-indol-3-yl]-acetic acid], `CCCCCCNS(=O)(=O)c1cc(-c2[nH]c3ccccc3c2CC(=O)O)ccc1Cl` [Example 1(c), [2-(4-Chloro-3-hexylsulfamoyl-phenyl)-1H-indol-3-yl]-acetic acid] is 1.6-fold lower in IC50: 49 nM for the first, 31 nM for the second. The second is the more potent here.

Compared with `O=C(O)Cc1c(-c2ccc(S(=O)(=O)NC3CCCCC3)cc2)[nH]c2ccccc12` [Example 10(h), [2-(4-Cyclohexylsulfamoyl-phenyl)-1H-indol-3-yl]-acetic acid], `O=C(O)Cc1c(-c2cccc(S(=O)(=O)NC3CCCCC3)c2)[nH]c2ccccc12` [Example 10(f), [2-(3-Cyclohexylsulfamoyl-phenyl)-1H-indol-3-yl]-acetic acid] is 11-fold lower in IC50: 1160 nM for the first, 106 nM for the second.

`O=C(O)Cc1c(-c2ccc(Cl)c(S(=O)(=O)NC3CCCCC3)c2)n(Cc2ccccc2)c2ccccc12` [Example 2(b), [1-Benzyl-2-(4-chloro-3-cyclohexylsulfamoyl-phenyl)-1H-indol-3-yl]-acetic acid] and `Cn1c(-c2ccc(Cl)c(S(=O)(=O)NC3CCCCC3)c2)c(CC(=O)O)c2ccccc21` [Example 2(a), [2-(4-Chloro-3-cyclohexylsulfamoyl-phenyl)-1-methyl-1H-indol-3-yl]-acetic acid] are within 1.5-fold of each other in IC50: 42 nM for the first, 52 nM for the second.

Compared with `NC(=O)Cc1c(-c2ccc(Cl)c(S(=O)(=O)NC3CCCCC3)c2)[nH]c2ccccc12` [Example 7(a), 2-[2-(4-Chloro-3-cyclohexylsulfamoyl-phenyl)-1H-indol-3-yl]-acetamide], `O=C(O)Cc1c(-c2ccc(Cl)c(S(=O)(=O)NC3CCCCC3)c2)[nH]c2ccccc12` [Example 1(a), [2-(4-Chloro-3-cyclohexylsulfamoyl-phenyl)-1H-indol-3-yl]-acetic acid] is 60-fold lower in IC50: 132 nM for the first, 2.2 nM for the second.

Going from `O=C(O)Cc1c(-c2ccc(Cl)c(NC(=O)C3CCCCC3)c2)[nH]c2ccccc12` [Example 14, {2-[4-chloro-3-(cyclohexanecarbonyl-amino)-phenyl]-1H-indol-3-yl}-acetic acid] to `O=C(O)Cc1c(-c2ccc(S(=O)(=O)NC3CCCCC3)c(Cl)c2)[nH]c2ccccc12` [Example 10(j), [2-(3-Chloro-4-cyclohexylsulfamoyl-phenyl)-1H-indol-3-yl]-acetic acid], the IC50 falls from 5860 nM to 1220 nM (4.8-fold).

First: O=C(O)Cc1c(-c2ccc(Cl)c(S(=O)(=O)N3CCCCC3)c2)[nH]c2ccccc12 [Example 1(p), {2-[4-Chloro-3-(piperidine-1-sulfonyl)-phenyl]-1H-indol-3-yl}-acetic acid]
Second: CN(C1CCCCC1)S(=O)(=O)c1cc(-c2[nH]c3ccccc3c2CC(=O)O)ccc1Cl [Example 1(x), {2-[4-Chloro-3-(cyclohexyl-methyl-sulfamoyl)-phenyl]-1H-indol-3-yl}-acetic acid]
The IC50 of the first is 2-fold higher: 678 nM for the first, 346 nM for the second.

`O=C(O)Cc1c(-c2ccc(Cl)c(S(=O)(=O)NC3CCCCC3)c2)[nH]c2ccc(OC(F)(F)F)cc12` [Example 1(v), [2-(4-Chloro-3-cyclohexylsulfamoyl-phenyl)-5-trifluoromethoxy-1H-indol-3-yl]-acetic acid] and `COc1ccc2[nH]c(-c3ccc(Cl)c(S(=O)(=O)NC4CCCCC4)c3)c(CC(=O)O)c2c1` [Example 10(a), [2-(4-Chloro-3-cyclohexylsulfamoyl-phenyl)-5-methoxy-1H-indol-3-yl]-acetic acid] are within 1.5-fold of each other in IC50: 4.2 nM for the first, 3 nM for the second.

First: Cn1c(-c2ccc(Cl)c(S(=O)(=O)NC3CCCCC3)c2)c(CCO)c2ccccc21 [Example 9, 2-Chloro-N-cyclohexyl-5-[3-(2-hydroxy-ethyl)-1-methyl-1H-indol-2-yl]-benzenesulfonamide]
Second: O=C(O)c1c(-c2ccc(Cl)c(S(=O)(=O)NC3CCCCC3)c2)[nH]c2ccccc12 [Example 15, 2-(4-Chloro-3-cyclohexylsulfamoyl-phenyl)-1H-indole-3-carboxylic acid]
The IC50 of the first is 12-fold higher: 8710 nM for the first, 741 nM for the second. The second is the more potent here.

First: O=C(O)Cc1c(-c2ccc(Cl)c(S(=O)(=O)NC3CC4CCC3C4)c2)[nH]c2ccccc12 (centres unmarked) [Example 1(b), {2-[3-(Bicyclo[2.2.1]hept-2-ylsulfamoyl)-4-chloro-phenyl]-1H-indol-3-yl}-acetic acid]
Second: O=C(O)Cc1c(-c2ccc(Cl)c(S(=O)(=O)NCCC3CCCCC3)c2)[nH]c2ccccc12 [Example 1(h), {2-[4-Chloro-3-(2-cyclohexyl-ethylsulfamoyl)-phenyl]-1H-indol-3-yl}-acetic acid]
The IC50 of the first is 12-fold lower: 3 nM for the first, 35 nM for the second. The first is the more potent here.

First: O=C(O)Cc1c(-c2ccc(Cl)c(S(=O)(=O)NCc3ccc(C(F)(F)F)cc3)c2)[nH]c2ccccc12 [Example 1(y), {2-[4-Chloro-3-(4-trifluoromethyl-benzylsulfamoyl)-phenyl]-1H-indol-3-yl}-acetic acid]
Second: O=C(O)Cc1c(-c2ccc(Cl)c(NS(=O)(=O)c3ccccc3)c2)[nH]c2ccccc12 [Example 13, [2-(3-benzenesulfonylamino-4-chlorophenyl)-1H-indol-3-yl]-acetic acid]
The IC50 of the first is 2.1-fold lower: 19 nM for the first, 39 nM for the second. The first is the more potent here.

`CN(C1CCCCC1)S(=O)(=O)c1cccc(-c2[nH]c3ccccc3c2CC(=O)O)c1` [Example 10(e), {2-[3-(Cyclohexyl-methyl-sulfamoyl)-phenyl]-1H-indol-3-yl}-acetic acid] and `O=C(O)Cc1c(-c2cc(C(F)(F)F)cc(S(=O)(=O)NC3CCCCC3)c2)[nH]c2ccccc12` [Example 12, [2-(3-cyclohexylsulfamoyl-5-trifluoromethyl-phenyl)-1H-indol-3-yl]-acetic acid] are within 1.5-fold of each other in IC50: 346 nM for the first, 232 nM for the second.

Compared with `O=C(Cc1c(-c2ccc(Cl)c(S(=O)(=O)NC3CCCCC3)c2)[nH]c2ccccc12)NS(=O)(=O)c1ccccc1` [Example 6, 5-[3-(2-Benzenesulfonylamino-2-oxo-ethyl)-1H-indol-2-yl]-2-chloro-N-cyclohexyl benzenesulfonamide], `O=C(O)Cc1c(-c2ccc(Cl)c(S(=O)(=O)NC3CCCCC3)c2)[nH]c2cc(Cl)ccc12` [Example 10(d), [6-Chloro-2-(4-chloro-3-cyclohexylsulfamoyl-phenyl)-1H-indol-3-yl]-acetic acid] is 5-fold lower in IC50: 5 nM for the first, 1 nM for the second. The second is the more potent here.

Compared with `O=C(O)Cc1c(-c2ccc(Cl)c(S(=O)(=O)NCC34CC5CC(CC(C5)C3)C4)c2)[nH]c2ccccc12` [Example 1(m), (2-[4-Chloro-3-[(tricyclo[3.3.1.13.7]decan-1-ylmethyl)-sulfamoyl]-phenyl]-1H-indol-3-yl)-acetic acid], `O=C(O)Cc1c(-c2ccc(Cl)c(S(=O)(=O)NC3CCCCC3)c2)[nH]c2ccc(O)cc12` [Example 10(c), [2-(4-Chloro-3-cyclohexylsulfamoyl-phenyl)-5-hydroxy-1H-indol-3-yl]-acetic acid] is 2-fold lower in IC50: 8.6 nM for the first, 4.2 nM for the second.
